The target of test [1] is binding of Raf-1 to GST Rb beads (Homo sapiens, UniProt P04049+P06400). Briefly: GST pull-down, U937 lysates. As to conditions: 20 μM, asynchronous U937 lysates, western blotting. Background: In western blotting, separated proteins are transferred to a membrane and probed.
Description: First, 200 micrograms (μg) of U937 asynchronous lysates were pre-incubated with 10 μM of the indicated drugs or 1 μM of the Raf-1 peptide for 30 minutes at 4° C. Next, 200 μg of the U937 lysates were incubated with glutathione beads carrying an equal amount of the GST fusion proteins in 2001 of protein binding buffer (20 mM Tris [pH 7.5], 50 mM KCL, 0.5 mM EDTA, 1 mM dithiothreitol, 0.5% NP-40, 3 mg of bovine serum albumin/mL) at 4° C. for 2 h.
Asynchronous U937 lysates were incubated with GST-Rb beads in the presence or absence of the selected compounds or an 8 amino acid Raf-1 peptide and the binding of Raf-1 assessed by western blotting.
For test [2], the system named is Human aortic endothelial cells (HAECs). Briefly: Matrigel angiogenic tubule formation. In kind it is cell-based. The note with it: 20 μM. As for the experimental part:
Matrigel assays. […] A total of 100 μl of thawed Matrigel was added to 96-well tissue culture plates, followed by incubation at 37° C. for 60 minutes to allow polymerization. […] Capillary tube formation assessed by using a Leica DMIL phase contrast microscope.
An experiment was performed to determine whether angiogenic tubule formation could be inhibited by the disclosed compounds.

In another test the target is T1, Rb-E2F1 (Homo sapiens, UniProt P06400+Q01094).
T1 construct: made in house
T1 sequence (P06400 whole entry): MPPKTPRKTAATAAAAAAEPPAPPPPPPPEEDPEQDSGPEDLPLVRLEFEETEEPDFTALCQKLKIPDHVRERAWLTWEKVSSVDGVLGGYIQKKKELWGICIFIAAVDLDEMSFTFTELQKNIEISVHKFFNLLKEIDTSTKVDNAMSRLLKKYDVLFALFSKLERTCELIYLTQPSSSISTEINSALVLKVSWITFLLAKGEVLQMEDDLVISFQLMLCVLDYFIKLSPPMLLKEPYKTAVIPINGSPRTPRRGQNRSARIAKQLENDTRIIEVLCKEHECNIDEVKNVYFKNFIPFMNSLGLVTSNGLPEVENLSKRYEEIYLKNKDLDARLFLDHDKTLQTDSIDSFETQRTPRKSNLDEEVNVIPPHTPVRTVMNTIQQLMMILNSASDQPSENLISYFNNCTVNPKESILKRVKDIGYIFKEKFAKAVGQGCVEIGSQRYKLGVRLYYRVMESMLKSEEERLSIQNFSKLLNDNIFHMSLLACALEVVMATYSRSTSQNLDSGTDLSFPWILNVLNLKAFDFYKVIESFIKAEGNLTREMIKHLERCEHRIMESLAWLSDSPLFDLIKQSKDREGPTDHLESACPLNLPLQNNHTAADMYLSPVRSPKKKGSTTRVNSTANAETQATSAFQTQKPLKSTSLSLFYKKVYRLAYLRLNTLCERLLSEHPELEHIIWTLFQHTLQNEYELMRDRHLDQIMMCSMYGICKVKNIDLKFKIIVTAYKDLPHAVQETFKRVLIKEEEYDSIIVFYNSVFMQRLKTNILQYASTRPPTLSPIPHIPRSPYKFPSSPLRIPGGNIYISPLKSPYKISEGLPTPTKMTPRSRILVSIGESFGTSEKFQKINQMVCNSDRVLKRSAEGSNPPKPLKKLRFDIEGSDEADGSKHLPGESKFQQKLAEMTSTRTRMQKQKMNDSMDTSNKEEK
T1 sequence (Q01094 whole entry): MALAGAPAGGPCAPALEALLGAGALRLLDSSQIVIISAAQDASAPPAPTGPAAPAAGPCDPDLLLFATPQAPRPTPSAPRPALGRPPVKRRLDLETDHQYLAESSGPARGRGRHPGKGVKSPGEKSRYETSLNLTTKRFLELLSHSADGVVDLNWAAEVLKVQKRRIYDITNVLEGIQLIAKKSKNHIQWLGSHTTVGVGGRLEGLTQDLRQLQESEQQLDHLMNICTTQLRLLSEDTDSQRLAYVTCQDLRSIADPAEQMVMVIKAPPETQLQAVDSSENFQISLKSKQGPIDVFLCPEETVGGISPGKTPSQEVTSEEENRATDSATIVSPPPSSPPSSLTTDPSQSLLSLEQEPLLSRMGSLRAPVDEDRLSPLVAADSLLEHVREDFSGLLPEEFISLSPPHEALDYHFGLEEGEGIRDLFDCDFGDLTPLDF
Put plainly: GST ELISA, Rb-E2F1 binding. As to conditions: 20 μM. The source says:
In vitro library screening assays. […] Absorbance was read at 490 nanometers (nm).

The target of test [3] is binding of Raf-1 to Rb in U937 cells (Homo sapiens, UniProt P04049+P06400). Briefly: Immunoprecipitation-Western blot, serum stimulated U937 cells. The note with it: U937 cells serum stimulated 2 hours, 20 μM.
Chain of binding of Raf-1 to Rb in U937 cells (P06400 whole entry): as the sequence (P06400 whole entry) above
Chain of binding of Raf-1 to Rb in U937 cells (P04049 whole entry): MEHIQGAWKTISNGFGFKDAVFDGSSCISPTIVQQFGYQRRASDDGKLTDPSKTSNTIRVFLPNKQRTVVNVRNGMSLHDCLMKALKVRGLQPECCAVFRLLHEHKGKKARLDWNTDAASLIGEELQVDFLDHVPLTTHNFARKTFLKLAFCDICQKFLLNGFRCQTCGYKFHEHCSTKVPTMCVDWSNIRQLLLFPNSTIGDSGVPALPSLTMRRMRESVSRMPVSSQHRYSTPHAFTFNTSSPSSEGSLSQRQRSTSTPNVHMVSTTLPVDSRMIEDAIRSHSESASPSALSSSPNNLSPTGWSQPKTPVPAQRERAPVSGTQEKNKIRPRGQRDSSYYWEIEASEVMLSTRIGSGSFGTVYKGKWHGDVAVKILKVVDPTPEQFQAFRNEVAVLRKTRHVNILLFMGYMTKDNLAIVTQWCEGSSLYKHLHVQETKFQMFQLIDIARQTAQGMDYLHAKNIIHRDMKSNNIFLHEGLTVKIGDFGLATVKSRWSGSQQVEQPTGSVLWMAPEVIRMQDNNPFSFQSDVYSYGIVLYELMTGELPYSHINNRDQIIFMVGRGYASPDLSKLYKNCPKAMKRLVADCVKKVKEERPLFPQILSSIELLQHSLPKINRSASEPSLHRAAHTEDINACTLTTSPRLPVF
Description: Lysate preparation, pmmunoprecipitation, and pestern plotting. Lysates from cells treated with different agents were prepared by NP-40 lysis as described earlier (Wang 1998). […] Physical interaction between proteins in vivo was analyzed by immunoprecipitation—Western blot analyses with 200 μg of lysate with 1 μg of the indicated antibody as previously described (Wang 1998). Polyclonal E2F1 and Cyclin D were obtained from Santa Cruz Biotechnology. Monoclonal Rb and Raf-1 were supplied by BD Transduction laboratories (San Jose, Calif.). Polyclonal antibodies to phospho-Rb (807,811) phospho-MEK1/2, MEK1/2, phospho-Erk1/2 and ERK1/2 were supplied by Cell Signaling (Danvers, Mass.).
U937 cells were serum starved for 48 hours and subsequently serum stimulated for 2 hours in the presence or absence of 20 μM of the compounds.
For the next test, the target named is T2, Rb:Raf-1 binding (Homo sapiens, UniProt P04049+P06400).
T2 construct: a glutathione S-transferase (GST) Raf-1 (1-149aa) overnight at 4° C; made in house
T2 sequence (P04049 1-149 limits assumed): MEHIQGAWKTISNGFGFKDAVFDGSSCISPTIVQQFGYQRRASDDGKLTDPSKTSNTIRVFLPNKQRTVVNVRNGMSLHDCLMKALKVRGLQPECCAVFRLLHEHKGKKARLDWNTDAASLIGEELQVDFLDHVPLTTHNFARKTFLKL
T2 sequence (P06400 whole entry): as the sequence (P06400 whole entry) above
Briefly: GST-Rb/GST-Raf-1 ELISA. The note with it: for IC50: IC50 (nM), inhibition of the Rb:Raf-1 binding, concentration that inhibits the Rb:Raf-1 binding by 50%, triplicate; for inhibition at 20 µM: read-out: % Inhibition at 20 μM, inhibition of Rb:Raf-1 binding, compound at 20 μM. How it is done: In vitro library screening assays. Enzyme Linked ImmunoSorbent Assay (ELISA) 96-well plates were coated with 1 μg/mL of a glutathione S-transferase (GST) Raf-1 (1-149aa) overnight at 4° C. Subsequently the plates were blocked and GST Rb at 20 μg/mL was rotated at room temperature (RT) for 30 minutes in the presence or absence of the compounds at 20 micromolar (μM). GST-Rb +/− compounds were then added to the plate and incubated for 90 minutes (min) at 37° C. The amount of Rb bound to Raf-1 was detected by Rb polyclonal antibody (Santa Cruz Biotechnology, Santa Cruz, Calif.) 1:1000 incubated for 60 min at 37° C. Donkey-anti-rabbit-IgG-HRP (1:10,000) was added to the plate and incubated at 37° C. for 60 minutes. The color was developed with orthophenylenediamine (Sigma, St. Louis, Mo.) and the reaction was terminated with 3 molar (M) H2SO4. Absorbance was read at 490 nanometers (nm). To determine disruption of Rb to E2F1, Phb, or HDAC1 the above protocol was used with the exception of coating GST Rb on the ELISA plate and adding the drugs in the presence or absence of GST E2F1, Phb, or HDAC1. […] Prohibitin monoclonal antibody was used at 1:1000 to detect the amount of Rb bound to Prohibitin. For disruption of MEK-Raf-1 binding ELISAs, Raf-1 1 microgram/milliliter (μg/mL) was coated on the plate and GST-MEK (20 μg/mL) was incubated +/− the compounds for 30 minutes at room temperature. Mek1 polyclonal antibody was used at 1:1000 to detect the binding of Raf-1 to Mek1. The IC50 concentrations for the Rb:Raf-1 inhibitors were determined by plotting with Origin 7.5 software (Origin, Northampton, Mass.).
A screen was developed to identify small molecule inhibitors of the Rb:Raf-1 interaction. A diversity set, comprising 1981 compounds (National Cancer Institute, Bethesda, Md.) was examined using a glutathione S-transferase-retinoblastoma/glutathione S-transferase-Raf-1 kinase Enzyme-Linked ImmunoSorbent Assay screen (GST-Rb/GST-Raf-1 ELISA).
Background: In an ELISA, binding on a coated surface is turned into a signal by an enzyme label.

Entries after “also recorded” stand apart in the source; their conditions may differ.

Chain of binding of Raf-1 to GST Rb beads (P06400 whole entry): as above
Chain of binding of Raf-1 to GST Rb beads (P04049 whole entry): as the sequence (P04049 whole entry) above

A word on the IC50: it is the concentration at which inhibition is half-maximal. Low readings indicate higher potency, high ones lower potency. Broadly, the inhibition is how much of the control response was suppressed. For `N=C(N)SCc1ccc(Cl)c2ccccc12` [(2), (4-chloronaphthalen-1-yl)methyl carbamimidothioate], in test [1], the “binding of Raf-1 to GST Rb beads” value is listed as “inhibited the binding of GST Rb beads to endogenous Raf-1”. Moreover, the “angiogenic tubule formation in matrigel” value in test [2] is “inhibit angiogenic tubule formation; also recorded: significantly inhibited the angiogenic tubule formation”. Besides, on Rb-E2F1, the “inhibition of Rb-E2F1 binding / selectivity in words” value was “selective for inhibiting Rb:Raf-1 and not Rb-E2F1 binding”. Also, the “binding of Raf-1 to Rb in intact cells” value in test [3] is “inhibited the binding of Raf-1 to Rb significantly”. Moreover, on Rb:Raf-1 binding, the concentration for half-maximal inhibition (IC50) was 283 ± 46 nM and the inhibition at 20 µM was 95%.

Turning to `N=C(N)SCc1ccc(Cl)cc1Cl` [(1), 2,4-dichlorobenzyl carbamimidothioate], in test [1], the “binding of Raf-1 to GST Rb beads” value is “inhibited the binding of GST Rb beads to endogenous Raf-1”. Besides, the “angiogenic tubule formation in matrigel” value in test [2] was “inhibit angiogenic tubule formation; also recorded: significantly inhibited the angiogenic tubule formation”. The “binding of Raf-1 to Rb in intact cells” value in test [3] is “inhibited the binding of Raf-1 to Rb significantly”. In addition, at Rb:Raf-1 binding, the concentration for half-maximal inhibition (IC50) was 81 ± 4 nM and the inhibition at 20 µM stood at 100%.
